Patent US11034700B2, “Substituted pyrrolidine compound and use thereof” (Takeda Pharmaceutical Company Limited, priority 2017, dated 2021)

Target: T1, human OX2 receptor (Homo sapiens, UniProt O43614)
T1 construct: expressed in transfected cells
T1 sequence (O43614 1-444): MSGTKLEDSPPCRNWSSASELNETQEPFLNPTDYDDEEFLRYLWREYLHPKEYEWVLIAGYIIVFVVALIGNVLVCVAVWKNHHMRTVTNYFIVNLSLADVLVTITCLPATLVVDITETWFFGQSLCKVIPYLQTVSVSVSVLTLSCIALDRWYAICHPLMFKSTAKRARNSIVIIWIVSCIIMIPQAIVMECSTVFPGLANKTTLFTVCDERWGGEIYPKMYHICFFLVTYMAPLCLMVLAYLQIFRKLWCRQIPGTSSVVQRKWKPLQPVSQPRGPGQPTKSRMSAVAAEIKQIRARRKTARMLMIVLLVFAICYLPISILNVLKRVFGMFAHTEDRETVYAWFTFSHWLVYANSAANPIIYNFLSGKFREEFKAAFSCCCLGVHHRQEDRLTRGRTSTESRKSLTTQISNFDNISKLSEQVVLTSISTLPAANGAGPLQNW
Assay: Measurement of orexin type 2 receptor agonist activity (Fluo-4 calcium fluorescence, FDSS)
Assay type: cell-based
Details: compound at 3 μM; CHO cells forcibly expressing human OX2 receptor; DMSO = 0%, orexin A (human) 10 nM = 100%
Text: Experimental Example 1: Obtainment of Cell Stably Expressing Human Orexin Type 2 Receptor (hOX2R)
To obtain a cell clone stably expressing human orexin type 2 receptor, human orexin type 2 receptor cDNA was inserted into pcDNA3.1(+) plasmid vector (Invitrogen), and a plasmid DNA for expression of human orexin type 2 receptor (pcDNA3.1(+)/hOX2R) was cloned. The plasmid DNA was introduced into CHO-dhfr cell by an electroporation method, and human orexin type 2 receptor expressing clone cells were obtained by limiting dilution method by using G418 drug resistance as a selection marker.
Experimental Example 2: Measurement of Orexin Type 2 Receptor Agonist Activity
CHO cells forcibly expressing human OX2 receptor were seeded in each well of 384 well black transparent bottom plate (BD Falcon) at 7,500 cells/well, and cultured for one day in a 5% CO2 incubator at 37° C. After removal of the medium in the cell plate, assay buffer A containing a calcium indicator (HESS (Life Technologies), 20 mM HEPES (Life Technologies), 0.1% BSA (Wako Pure Chemical Industries, Ltd.), 2.5 μg/mL Fluo-4 AM (DOJINDO Chemical), 0.08% Pluronic F127 (DOJINDO Chemical), 1.25 mM probenecid (DOJINDO Chemical)) was added at 30 μL/well. The plate was stood for 30 min in a 5% CO2 incubator at 37° C., and further stood at room temperature for 30 min. A test compound prepared by diluting with assay buffer B (HESS, 20 mM HEPES, 0.1% BSA) was added at 10 μL/well, and the fluorescence value was measured by FDSSμCELL (Hamamatsu Photonics K.K.) every one sec for 1 min, and thereafter every two sec for 1 min 40 sec. The activity (%) of the test compound was calculated assuming that variation in the fluorescence value when DMSO was added instead of the test compound was 0% […], and variation in the fluorescence value when orexin A (human) (PEPTIDE INSTITUTE, INC.) was added at the final concentration of 10 nM was 100% […]. The activity of each compound at the concentration of 3 μM was shown below.

SMILES | OX2R agonist activity (3 μM, %) [%]
COc1ccc(-c2cccc(C(=O)N(C)C)c2)cc1S(=O)(=O)Nc1cccc(O[C@H]2CCN(C(=O)c3cnn(C)c3C(F)(F)F)C2)c1 [Example 29, 4′-methoxy-N,N-dimethyl-3′-((3-(((3S)-1-((1-methyl-5-(trifluoromethyl)-1H-pyrazol-4-yl)carbonyl)pyrrolidin-3-yl)oxy)phenyl)sulfamoyl)biphenyl-3-carboxamide] | 98
COc1ccc(-c2cccc(C(=O)N(C)C)c2)cc1S(=O)(=O)Nc1cccc(O[C@H]2CCN(C(=O)c3cc(C)ccc3C)C2)c1 [Example 32, 3′-((3-(((3S)-1-(2,5-dimethylbenzoyl)pyrrolidin-3-yl)oxy)phenyl)sulfamoyl)-4′-methoxy-N,N-dimethylbiphenyl-3-carboxamide] | 92
Cc1cccc(C)c1C(=O)N1CC[C@H](Oc2cccc(NS(=O)(=O)c3cccc(-c4cccc(C(=O)N(C)C)c4)c3)c2)C1 [Example 34, 3′-((3-(((3S)-1-(2,6-dimethylbenzoyl)pyrrolidin-3-yl)oxy)phenyl)sulfamoyl)-N,N-dimethylbiphenyl-3-carboxamide] | 94
Cc1cccc(C)c1C(=O)N1CC[C@H](Oc2cccc(NS(=O)(=O)c3cc(-c4cccc(C(=O)N(C)C)c4)ccc3F)c2)C1 [Example 35, 3′-((3-(((3S)-1-(2,6-dimethylbenzoyl)pyrrolidin-3-yl)oxy)phenyl)sulfamoyl)-4′-fluoro-N,N-dimethylbiphenyl-3-carboxamide] | 99
CCCS(=O)(=O)Nc1cccc(O[C@H]2CCN(C(=O)c3c(C)cccc3C)C2)c1 [Example 36, N-(3-(((3S)-1-(2,6-dimethylbenzoyl)pyrrolidin-3-yl)oxy)phenyl)propane-1-sulfonamide] | 23
COc1ccc(-c2cccc(C(=O)N(C)C)c2)cc1S(=O)(=O)Nc1cccc(CC2CCN(C(=O)c3cc(C)ccc3C)C2)n1 (centres unmarked) [Example 45, 3′-((6-((1-(2,5-dimethylbenzoyl)pyrrolidin-3-yl)methyl)pyridin-2-yl)sulfamoyl)-4′-methoxy-N,N-dimethylbiphenyl-3-carboxamide] | 92
COc1ccc(-c2cccc(C(=O)N(C)C)c2)cc1S(=O)(=O)Nc1cc(OC2CCN(C(=O)c3cccc(C)c3)C2)ccn1 (centres unmarked) [Example 49, 4′-methoxy-N,N-dimethyl-3′-((4-((1-(3-methylbenzoyl)pyrrolidin-3-yl)oxy)pyridin-2-yl)sulfamoyl)biphenyl-3-carboxamide] | 64
COc1ccc(-c2cccc(C(=O)N(C)C)c2)cc1S(=O)(=O)Nc1cccc(N(C)C2CCN(C(=O)c3cc(C)ccc3C)C2)c1 (centres unmarked) [Example 58, 3′-((3-((1-(2,5-dimethylbenzoyl)pyrrolidin-3-yl)(methyl)amino)phenyl)sulfamoyl)-4′-methoxy-N,N-dimethylbiphenyl-3-carboxamide] | 104
COc1ccccc1S(=O)(=O)Nc1cccc(O[C@@H]2CN(C(=O)c3cc(C)ccc3C)C[C@H]2OC)c1 [Example 63, N-(3-(((3R,4R)-1-(2,5-dimethylbenzoyl)-4-methoxypyrrolidin-3-yl)oxy)phenyl)-2-methoxybenzenesulfonamide] | 112
COc1ccc(-c2cccc(C(=O)N(C)C)c2)cc1S(=O)(=O)Nc1cccc(O[C@H]2CCN(C(=O)c3c(C)cccc3C)C2)c1F [Example 71, 3′-((3-(((3S)-1-(2,6-dimethylbenzoyl)pyrrolidin-3-yl)oxy)-2-fluorophenyl)sulfamoyl)-4′-methoxy-N,N-dimethylbiphenyl-3-carboxamide] | 89
COc1ccc(-c2cccc(C(=O)N(C)C)c2)cc1S(=O)(=O)Nc1cc(O[C@H]2CCN(C(=O)c3c(C)cccc3C)C2)ccc1F [Example 72, 3′-((5-(((3S)-1-(2,6-dimethylbenzoyl)pyrrolidin-3-yl)oxy)-2-fluorophenyl)sulfamoyl)-4′-methoxy-N,N-dimethylbiphenyl-3-carboxamide] | 85
COc1ccccc1S(=O)(=O)Nc1cccc(O[C@@H]2CN(C(=O)c3c(C)cccc3C)C[C@H]2OC)c1 [Example 74, N-(3-(((3R,4R)-1-(2,6-dimethylbenzoyl)-4-methoxypyrrolidin-3-yl)oxy)phenyl)-2-methoxybenzenesulfonamide] | 104
COc1ccccc1S(=O)(=O)Nc1cccc(O[C@@H]2CN(C(=O)C3(c4ccccc4)CC3)C[C@H]2OC)c1 [Example 76, 2-methoxy-N-(3-(((3R,4R)-4-methoxy-1-((1-phenylcyclopropyl)carbonyl)pyrrolidin-3-yl)oxy)phenyl)benzenesulfonamide] | 79
CCCS(=O)(=O)Nc1cccc(O[C@@H]2CN(C(=O)c3cc(C)ccc3C)C[C@H]2OC)c1 [Example 79, N-(3-(((3R,4R)-1-(2,5-dimethylbenzoyl)-4-methoxypyrrolidin-3-yl)oxy)phenyl)propane-1-sulfonamide] | 76
CO[C@@H]1CN(C(=O)c2cc(C)ccc2C)C[C@H]1Oc1cccc(NS(=O)(=O)C2CCOCC2)c1 [Example 81, N-(3-(((3R,4R)-1-(2,5-dimethylbenzoyl)-4-methoxypyrrolidin-3-yl)oxy)phenyl)tetrahydro-2H-pyran-4-sulfonamide] | 92

The remaining lines, values ahead:

OX2R agonist activity (3 μM, %) [%] | SMILES
89 | COc1ccc(N2CCCCC2=O)cc1S(=O)(=O)Nc1cccc(O[C@H]2CCN(C(=O)c3c(C)cccc3C)C2)c1 [Example 30, N-(3-(((3S)-1-(2,6-dimethylbenzoyl)pyrrolidin-3-yl)oxy)phenyl)-2-methoxy-5-(2-oxopiperidin-1-yl)benzenesulfonamide]
75 | COc1ccc(N2CCOCC2)cc1S(=O)(=O)Nc1cccc(O[C@H]2CCN(C(=O)c3c(C)cccc3C)C2)c1 [Example 31, N-(3-(((3S)-1-(2,6-dimethylbenzoyl)pyrrolidin-3-yl)oxy)phenyl)-2-methoxy-5-(morpholin-4-yl)benzenesulfonamide]
89 | COc1ccc(C2CCCCN2C(C)=O)cc1S(=O)(=O)Nc1cccc(O[C@H]2CCN(C(=O)c3c(C)cccc3C)C2)c1 (stereo partly drawn) [Example 33, 5-(1-acetylpiperidin-2-yl)-N-(3-(((3S)-1-(2,6-dimethylbenzoyl)pyrrolidin-3-yl)oxy)phenyl)-2-methoxybenzenesulfonamide]
35 | Cc1cccc(C)c1C(=O)N1CC[C@H](Oc2cccc(NS(=O)(=O)c3ccccc3Cl)c2)C1 [Example 37, 2-chloro-N-(3-(((3S)-1-(2,6-dimethylbenzoyl)pyrrolidin-3-yl)oxy)phenyl)benzenesulfonamide]
44 | Cc1cccc(C)c1C(=O)N1CC[C@H](Oc2cccc(NS(=O)(=O)c3sccc3Cl)c2)C1 [Example 38, 3-chloro-N-(3-(((3S)-1-(2,6-dimethylbenzoyl)pyrrolidin-3-yl)oxy)phenyl)thiophene-2-sulfonamide]
97 | COc1ccc(N2CCCC3(CCCCO3)C2)cc1S(=O)(=O)Nc1cccc(O[C@H]2CCN(C(=O)c3c(C)cccc3C)C2)c1 (stereo partly drawn) [Example 41, N-(3-(((3S)-1-(2,6-dimethylbenzoyl)pyrrolidin-3-yl)oxy)phenyl)-2-methoxy-5-(1-oxa-8-azaspiro[5.5]undec-8-yl)benzenesulfonamide]
97 | COc1ccc(N2CCCC(C(=O)N3CCCC3)C2)cc1S(=O)(=O)Nc1cccc(O[C@H]2CCN(C(=O)c3c(C)cccc3C)C2)c1 (stereo partly drawn) [Example 42, N-(3-(((3S)-1-(2,6-dimethylbenzoyl)pyrrolidin-3-yl)oxy)phenyl)-2-methoxy-5-(3-(pyrrolidin-1-ylcarbonyl)piperidin-1-yl)benzenesulfonamide]
69 | COc1ccccc1S(=O)(=O)Nc1cccc(O[C@H]2CCN(C(=O)c3cc(C)ccc3C)C2)c1 [Example 62, N-(3-(((3S)-1-(2,5-dimethylbenzoyl)pyrrolidin-3-yl)oxy)phenyl)-2-methoxybenzenesulfonamide]
